Experimental data taken from patent US9187472B2 (AbbVie Inc., priority 2012, dated 2015).

Tests used:
[1] = system: experimental autoimmune encephalomyelitis (EAE); conditions: model of T-cell mediated autoimmune disorders, Bruzzone et al. 2009; cited from earlier work
activated T cells = conditions: Busso et al. 2008; cited from earlier work
[2] = system: collagen induced arthritis; conditions: Busso et al. 2008; cited from earlier work
NAMPT = NAMPT (Homo sapiens, UniProt P43490); assay: TR-FRET Binding Assay of NAMPT with PRPP; conditions: with 200 μM PRPP and 2.5 mM ATP; 2 nM NAMPT, 2 nM probe, 16 hours equilibration
Procedure, shortened: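 NAMPT 2 nM + probe 2 nM + Tb-anti-His Ab 1 nM; PRPP 200 μM, ATP 2.5 mM, DMSO 2%; 16 h equilibration before TR-FRET read.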

PC3 cells = assay: NAMPT Cell Proliferation Assay; format: cell-based; conditions: Homo sapiens, PC-3, 120 h, 5 days incubation, cell viability by Cell Titer Glo
Procedure, shortened: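 Proliferation of PC3 cells treated 5 days with a 10-fold compound series (top 10 μM) was quantified by Cell Titer Glo luminescence; IC50s were fitted from percent inhibition.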

[3] = target: NAMPT (human, recombinant, C-terminally His-tagged) (Homo sapiens, UniProt P43490); assay: Time-Resolved Fluorescence Resonance Energy Transfer (TR-FRET) Binding Assay of NAMPT; conditions: without substrates; 6.8 nM NAMPT, 200 nM probe, 3 hours equilibration
Procedure, shortened: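 Read-out is the time-resolved FRET ratio Em520/Em495 (excitation 337 nm) between a terbium anti-His antibody (1 nM) on the enzyme and an Oregon Green 488-labelled nicotinamide-competitive inhibitor probe (200 nM). Enzyme was 6.8 nM, DMSO 2%, pH 7.5 HEPES buffer; 3 h room-temperature equilibration preceded reading.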

Chain of NAMPT (human, recombinant, C-terminally His-tagged) (P43490 whole entry): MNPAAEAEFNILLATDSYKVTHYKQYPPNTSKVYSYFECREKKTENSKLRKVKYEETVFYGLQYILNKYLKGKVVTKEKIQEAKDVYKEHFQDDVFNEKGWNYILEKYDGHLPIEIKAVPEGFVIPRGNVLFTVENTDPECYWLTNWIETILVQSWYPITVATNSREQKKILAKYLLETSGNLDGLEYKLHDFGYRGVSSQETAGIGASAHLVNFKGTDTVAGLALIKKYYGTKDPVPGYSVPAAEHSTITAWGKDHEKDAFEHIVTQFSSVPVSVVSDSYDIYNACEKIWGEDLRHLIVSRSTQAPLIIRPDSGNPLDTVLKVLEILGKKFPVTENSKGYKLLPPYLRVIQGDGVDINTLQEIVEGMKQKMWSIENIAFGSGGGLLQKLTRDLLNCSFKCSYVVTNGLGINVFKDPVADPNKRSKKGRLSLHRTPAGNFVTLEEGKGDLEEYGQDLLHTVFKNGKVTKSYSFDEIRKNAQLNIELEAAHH
Chain of NAMPT (P43490 whole entry): as above

Row | Structure (SMILES) | IC50 (NAMPT) | IC50 (PC3 cells) | IC50 [3] | manifestations of experimental autoimmune encephalomyelitis [1] | apoptosis of activated T cells (activated T cells) | proliferation of activated T cells (activated T cells) | efficacy in animal models of arthritis [2]
1 | O=C(/C=C/c1cccnc1)NCCCCC1CCN(C(=O)c2ccccc2)CC1 [FK866] |  |  |  | ameliorated the manifestations | induce apoptosis | selectively block proliferation | efficacious
2 | O=C(NCc1ccn2ccnc2c1)c1ccc(C2CCN(C(=O)[C@@H]3CCCO3)C2)cc1 (stereo partly drawn) [Example 374, N-(imidazo[1,2-a]pyridin-7-ylmethyl)-4-{1-[(2S)-tetrahydrofuran-2-ylcarbonyl]pyrrolidin-3-yl}benzamide] | 0.000292 µM | 0.792 µM | 1.67 µM |  |  |  | 
3 | O=C(NCc1ccn2ccnc2c1)c1ccc(C2CCN(C(=O)[C@@H]3CCOC3)CC2)cc1 [Example 309, N-(imidazo[1,2-a]pyridin-7-ylmethyl)-4-{1-[(3R)-tetrahydrofuran-3-ylcarbonyl]piperidin-4-yl}benzamide] | 0.000169 µM | 0.0548 µM | 0.117 µM |  |  |  | 
4 | CC(C)CCC(=O)Nc1ccc(NC(=O)Nc2ccc3nccn3c2)cc1 [Example 47, N-{4-[(imidazo[1,2-a]pyridin-6-ylcarbamoyl)amino]phenyl}-4-methylpentanamide] | 0.00062 µM | 0.0648 µM | 0.0575 µM |  |  |  | 
5 | O=C(CC1CCCC1)Nc1ccc(C(=O)NCc2ccc3nccn3c2)cc1 [Example 52, 4-[(cyclopentylacetyl)amino]-N-(imidazo[1,2-a]pyridin-6-ylmethyl)benzamide] | 0.00579 µM | 0.00407 µM | 0.0186 µM |  |  |  | 
6 | O=C(NCc1ccc2nccn2c1)c1cnc(N2CCc3ccccc3CC2)s1 [Example 85, N-(imidazo[1,2-a]pyridin-6-ylmethyl)-2-(1,2,4,5-tetrahydro-3H-3-benzazepin-3-yl)-1,3-thiazole-5-carboxamide] | 0.00141 µM | 2.61 µM | 4.07 µM |  |  |  | 
7 | O=C(CC1CCCO1)Nc1ccc(C(=O)NCc2ccn3ccnc3c2)cc1 (stereo not shown) [Example 209, N-(imidazo[1,2-a]pyridin-7-ylmethyl)-4-[(tetrahydrofuran-2-ylacetyl)amino]benzamide] | 0.000988 µM | 0.693 µM | 0.811 µM |  |  |  | 
8 | O=C(NCc1ccn2ccnc2c1)c1ccc(C2(O)CN(C(=O)c3ccccc3)C2)s1 [Example 401, 5-(1-benzoyl-3-hydroxyazetidin-3-yl)-N-(imidazo[1,2-a]pyridin-7-ylmethyl)thiophene-2-carboxamide] | 0.000292 µM | 0.0559 µM | 0.0126 µM |  |  |  | 
9 | CCCNC(=O)c1ccc(NC(=O)Nc2ccc3nccn3c2)cc1 [Example 17, 4-[(imidazo[1,2-a]pyridin-6-ylcarbamoyl)amino]-N-propylbenzamide] | 0.000401 µM | 4.96 µM | 2.96 µM |  |  |  | 
10 | CC(C)OCC1CN(c2ncc(C(=O)NCc3ccn4ccnc4c3)s2)C(=O)O1 (stereo not shown) [Example 249, N-(imidazo[1,2-a]pyridin-7-ylmethyl)-2-{2-oxo-5-[(propan-2-yloxy)methyl]-1,3-oxazolidin-3-yl}-1,3-thiazole-5-carboxamide] | 0.00072 µM | 0.0665 µM | 0.817 µM |  |  |  | 
11 | CC(C)OCC(=O)N1CCC(Oc2ccc(C(=O)NCc3ccc4nccn4c3)cc2)CC1 [Example 167, N-(imidazo[1,2-a]pyridin-6-ylmethyl)-4-({1-[(propan-2-yloxy)acetyl]piperidin-4-yl}oxy)benzamide] | 0.00252 µM | 0.104 µM | 1.73 µM |  |  |  | 
12 | CC(C)OCCNC(=O)N(CC1CCOC1)c1ncc(C(=O)NCc2ccc3nccn3c2)s1 (stereo not shown) [Example 157, N-(imidazo[1,2-a]pyridin-6-ylmethyl)-2-[{[2-(propan-2-yloxy)ethyl]carbamoyl}(tetrahydrofuran-3-ylmethyl)amino]-1,3-thiazole-5-carboxamide] | 0.0011 µM | 0.0292 µM | 4.14 µM |  |  |  | 
13 | O=C(NCc1ccn2ccnc2c1)c1ccc(C2CCN(C(=O)C3CC3)CC2)s1 [Example 260, 5-[1-(cyclopropylcarbonyl)piperidin-4-yl]-N-(imidazo[1,2-a]pyridin-7-ylmethyl)thiophene-2-carboxamide] | 0.000351 µM | 0.00806 µM | 0.0465 µM |  |  |  | 
14 | O=C(NCc1ccc2nccn2c1)c1ccc(OC2CCN(C(=O)[C@H]3CCCO3)CC2)cc1 [Example 165, N-(imidazo[1,2-a]pyridin-6-ylmethyl)-4-({1-[(2R)-tetrahydrofuran-2-ylcarbonyl]piperidin-4-yl}oxy)benzamide] | 0.00161 µM | 0.137 µM | 1.53 µM |  |  |  | 
15 | O=C(NCc1ccn2ccnc2c1)c1ccc(-c2cnn(C[C@H]3CCCO3)c2)s1 [Example 395, N-(imidazo[1,2-a]pyridin-7-ylmethyl)-5-{1-[(2R)-tetrahydrofuran-2-ylmethyl]-1H-pyrazol-4-yl}thiophene-2-carboxamide] | 0.000193 µM | 0.00634 µM | 0.0125 µM |  |  |  | 
16 | O=C(NCc1ccn2ccnc2c1)c1ccc(-c2cnn(CC3CCCO3)c2)s1 (stereo not shown) [Example 248, N-(imidazo[1,2-a]pyridin-7-ylmethyl)-5-[1-(tetrahydrofuran-2-ylmethyl)-1H-pyrazol-4-yl]thiophene-2-carboxamide] | 0.000169 µM | 0.00242 µM | 0.0658 µM |  |  |  | 
17 | CC(C)OC[C@@H]1CN(c2ncc(C(=O)NCc3ccn4ccnc4c3)s2)C(=O)O1 [Example 255, N-(imidazo[1,2-a]pyridin-7-ylmethyl)-2-{(5S)-2-oxo-5-[(propan-2-yloxy)methyl]-1,3-oxazolidin-3-yl}-1,3-thiazole-5-carboxamide] | 0.00222 µM | 4.29 µM | 8.19 µM |  |  |  | 

More lines, main results first:

Row | IC50 (NAMPT) | IC50 (PC3 cells) | IC50 [3] | Structure (SMILES) | manifestations of experimental autoimmune encephalomyelitis [1] | apoptosis of activated T cells (activated T cells) | proliferation of activated T cells (activated T cells) | efficacy in animal models of arthritis [2]
18 | 0.000538 µM | 0.00106 µM | 0.0261 µM | CC(C)(C)Cn1cc(-c2ccc(C(=O)NCc3ccn4ccnc4c3)o2)cn1 [Example 825, 5-[1-(2,2-dimethylpropyl)-1H-pyrazol-4-yl]-N-(imidazo[1,2-a]pyridin-7-ylmethyl)furan-2-carboxamide] |  |  |  | 
19 | 0.00034 µM | 0.0422 µM | 0.405 µM | O=C(NCc1ccn2ccnc2c1)Nc1ccc(C2CN(C(=O)CC3CC3)C2)cc1 [Example 454, 1-{4-[1-(cyclopropylacetyl)azetidin-3-yl]phenyl}-3-(imidazo[1,2-a]pyridin-7-ylmethyl)urea] |  |  |  | 
20 | 0.00163 µM | 0.0045 µM | 0.0687 µM | CC1(C(=O)N2CCC(c3ccc(C(=O)NCc4cn5ccnc5cn4)cc3)CC2)CC1 [Example 814, N-(imidazo[1,2-a]pyrazin-6-ylmethyl)-4-{1-[(1-methylcyclopropyl)carbonyl]piperidin-4-yl}benzamide] |  |  |  | 
21 | 0.000629 µM | 0.00067 µM | 0.0364 µM | O=C(NCc1ccn2ccnc2c1)c1ccc(-c2cnn(CC3(F)CCOCC3)c2)s1 [Example 698, 5-{1-[(4-fluorotetrahydro-2H-pyran-4-yl)methyl]-1H-pyrazol-4-yl}-N-(imidazo[1,2-a]pyridin-7-ylmethyl)thiophene-2-carboxamide] |  |  |  | 
22 | 0.000292 µM | 0.0935 µM | 0.413 µM | N#Cc1cccc(C(=O)N2CCC(c3ccc(C(=O)NCc4ccn5ccnc5c4)cc3)CC2)c1 [Example 521, 4-[1-(3-cyanobenzoyl)piperidin-4-yl]-N-(imidazo[1,2-a]pyridin-7-ylmethyl)benzamide] |  |  |  | 
23 | 0.000205 µM | 0.0345 µM | 0.0956 µM | O=C(NCc1ccn2ccnc2c1)c1ccc(-c2cnn(CC3CCNCC3)c2)s1 [Example 485, N-(imidazo[1,2-a]pyridin-7-ylmethyl)-5-[1-(piperidin-4-ylmethyl)-1H-pyrazol-4-yl]thiophene-2-carboxamide] |  |  |  | 
24 | 0.000909 µM | 0.257 µM | 0.691 µM | O=C(NCc1ccn2ccnc2c1)c1ccc(C2CCN(C(=O)c3ccc(Cl)cc3)C2)cc1 (stereo not shown) [Example 596, 4-[1-(4-chlorobenzoyl)pyrrolidin-3-yl]-N-(imidazo[1,2-a]pyridin-7-ylmethyl)benzamide] |  |  |  | 
25 | 0.000169 µM | 0.11 µM | 0.51 µM | Cc1ccc(C(=O)N2CCC(c3ccc(C(=O)NCc4ccn5ccnc5c4)cc3)C2)cc1 (stereo not shown) [Example 600, N-(imidazo[1,2-a]pyridin-7-ylmethyl)-4-[1-(4-methylbenzoyl)pyrrolidin-3-yl]benzamide] |  |  |  | 
26 | 0.000985 µM | 2.93 µM | > 10 µM | CC(C)C(=O)NC1(c2ccc(C(=O)NCc3ccn4ccnc4c3)s2)CCC1 [Example 468, N-(imidazo[1,2-a]pyridin-7-ylmethyl)-5-{1-[(2-methylpropanoyl)amino]cyclobutyl}thiophene-2-carboxamide] |  |  |  | 
